The results in this text go back to US20240082221A1, “COMPOSITIONS AND METHODS FOR THE IDENTIFICATION OF COMPOUNDS THAT PROTECT AGAINST LIPOFUSCIN CYTOTOXICITY” (priority 2021, published 2024).

The test system of the assay is LLO-induced atypical necroptosis. Nature of the assay: LLO-induced atypical necroptosis, protection assay. Format: cell-based.

Structures are written as SMILES.

Regarding `N=C1S/C(=C\c2cn[nH]c2-c2ccc(F)cc2)C(=O)N1c1nccs1` [Nec7, Necrostatin 7], the “protection against LLO-induced atypical necroptosis” value is listed as “preventable”.

Turning to `[O-][n+]1cccc(/C(Cl)=N/OC[C@H](O)CN2CCCCC2)c1` [arimoclomol], the “protection against LLO-induced atypical necroptosis” value was “preventable”.
